Measurements from US20020103083A1, “Promoting deeper root development, reducing nitrogen fertilizer usage, imparting drought resistance, and increasing tolerance to adverse soil conditions in plants” (priority 2000, published 2002).

Tested on: T. harzianum strain T-22
Experiment: Effect of chemical seed treatments on subsequent root colonization by T-22
Assay type: in vivo, Trichoderma harzianum
Conditions: full rates of chemical seed treatment
Excerpt: In nearly all cases, the best results in direct-seeded field crops are obtained with an integration of chemical seed treatments and the deep root developing agents. […] This resistance permits the use of both the biological root colonizing agent and chemical seed protectants.

Row | SMILES | prevention of subsequent root colonization by T-22
1 | CC(C)(C)C(O)(CCc1ccc(Cl)cc1)Cn1cncn1 (centres unmarked) [tebuconazole] | exceptions
2 | CN(C)C(=S)SSC(=S)N(C)C [thiram] | exceptions
